Data taken from patent US10729710B2, “Catecholamine prodrugs for use in the treatment of Parkinson's disease” (H. Lundbeck A/S, priority 2017, dated 2020).
Counter-ions that a name gives are not always drawn.

How the values were obtained:
human D1 receptor = human D1 receptor (Homo sapiens (Human), UniProt P21728); assay: Dopamine D1 receptor agonism, HTRF cAMP assay; assay type: cell-based; conditions: HEK-293 cells expressing human D1 receptor, cAMP
Description: Dopamine D1 receptor agonism was measured using a HTRF cAMP from CisBio using the protocol developed by HD Biosciences (China). Briefly, the assay is a homogeneous time resolved-fluorescence resonance energy transfer (HTRF) assay that measures production of cAMP by cells in a competitive immunoassay between native cAMP produced by cells and cAMP-labeled with XL-665. A cryptate-labeled anti-cAMP antibody visualizes the tracer. The assay was performed in accordance with instructions from manufacturer.
Test compounds were added to wells of microplates (384 format). HEK-293 cells expressing the human D1 receptor were plated at 1000 cells/well and incubated 30 min at room temperature. cAMP-d2 tracer was added to wells and followed by addition of Anti-cAMP antibody-cryptate preparation and incubated for 1 h at room temperature in dark. HTRF cAMP was measured by excitation of the donor with 337 nm laser (the “TRF light unit”) and subsequent (delay time 100 microseconds) measurement of cryptate and d2 emission at 615 nm and 665 nm over a time window of 200 microseconds with a 2000 microseconds time window between repeats/100 flashes). HRTF measurements were performed on an Envision microplate reader (PerkinElmer). The HTRF signal was calculated as the emission-ratio at 665 nm over 615 nm. The HTRF ratio readout for test compounds was normalized to 0% and 100% stimulation using control wells with DMSO-solvent or 30 uM dopamine. Test compound potency (EC50) was estimated by nonlinear regression using the sigmoidal dose-response (variable slope) using Xlfit 4 (IDBS, Guildford, Surrey, UK, model 205). y=(A+((B−A)/(1+((C/x)^D)))) where y is the normalized HTRF ratio measurement for a given concentration of test compound, x is the concentration of test compound, A is the estimated efficacy at infinite compound dilution, and B is the maximal efficacy. C is the EC50 value and D is the Hill slope coefficient. EC50 estimates were obtained from an independent experiment and the logarithmic average was calculated. Dopamine D2 Receptor Agonism

human D2 receptor = human D2 receptor (Homo sapiens (Human), UniProt P14416); assay: Dopamine D2 receptor agonism, calcium mobilization assay; assay type: cell-based
human D2 receptor, sequence (P14416 whole entry): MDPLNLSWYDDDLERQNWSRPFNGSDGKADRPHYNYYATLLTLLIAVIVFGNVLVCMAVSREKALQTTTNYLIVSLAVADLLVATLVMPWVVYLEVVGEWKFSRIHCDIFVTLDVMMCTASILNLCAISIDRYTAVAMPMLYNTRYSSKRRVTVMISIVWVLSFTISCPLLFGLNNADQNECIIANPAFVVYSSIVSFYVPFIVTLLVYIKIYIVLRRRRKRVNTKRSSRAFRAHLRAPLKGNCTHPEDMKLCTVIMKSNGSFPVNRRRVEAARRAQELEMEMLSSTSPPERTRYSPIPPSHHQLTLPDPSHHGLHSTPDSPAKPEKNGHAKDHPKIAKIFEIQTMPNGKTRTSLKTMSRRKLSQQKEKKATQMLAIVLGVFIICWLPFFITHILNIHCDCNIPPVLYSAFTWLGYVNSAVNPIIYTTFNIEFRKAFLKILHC
Description: Dopamine D2 receptor agonism was measured using a calcium mobilization assay protocol developed by HD Biosciences (China). Briefly, HEK293/G15 cells expressing human D2 receptor were plated at a density of 15000 cells/well in clear-bottomed, Matrigel-coated 384-well plates and grown for 24 hrs at 37° C. in the presence of 5% CO2. The cells were incubated with calcium-sensitive fluorescent dye, Fluo8, for 60-90 minutes at 37° C. in the dark. Test compounds were prepared at 3-fold concentrated solution in 1×HBSS buffer with Ca^2+ and Mg^2+. Calcium Flux signal was immediately recorded after compounds were added from compound plate to cell plate at FLIPR (Molecular Devices). The fluorescence data were normalized to yield responses for no stimulation (buffer) and full stimulation (1 μM of dopamine) of 0% and 100% stimulation, respectively. Test compound potency (EC50) was estimated by nonlinear regression using the sigmoidal dose-response (variable slope) using Xlfit 4 (IDBS, Guildford, Surrey, UK, model 205). y=(A+((B−A)/(1+((C/x)^D)))) where y is the normalized ratio measurement for a given concentration of test compound, x is the concentration of test compound, A is the estimated efficacy at infinite compound dilution, and B is the maximal efficacy. C is the EC50 value and D is the Hill slope coefficient. EC50 estimates were obtained from independent experiment and the logarithmic average was calculated.

human 5-HT2B receptor = human 5-HT2B receptor (Homo sapiens (Human), UniProt P41595); assay: 5-HT2B agonist activity assay (IP1 production, HTRF); assay type: cell-based
human 5-HT2B receptor, sequence (P41595 whole entry): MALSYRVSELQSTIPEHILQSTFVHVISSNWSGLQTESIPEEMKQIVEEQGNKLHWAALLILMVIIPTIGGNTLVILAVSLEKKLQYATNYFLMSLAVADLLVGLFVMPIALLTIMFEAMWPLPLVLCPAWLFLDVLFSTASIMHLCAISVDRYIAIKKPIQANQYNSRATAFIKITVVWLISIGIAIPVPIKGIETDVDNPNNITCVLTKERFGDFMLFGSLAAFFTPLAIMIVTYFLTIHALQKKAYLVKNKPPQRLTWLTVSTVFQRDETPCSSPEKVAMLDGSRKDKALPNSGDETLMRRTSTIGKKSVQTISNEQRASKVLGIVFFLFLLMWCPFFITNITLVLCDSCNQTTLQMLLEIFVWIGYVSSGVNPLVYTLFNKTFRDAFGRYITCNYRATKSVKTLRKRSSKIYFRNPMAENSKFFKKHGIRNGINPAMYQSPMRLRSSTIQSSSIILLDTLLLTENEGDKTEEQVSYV
Description: Evaluation of the agonist activity of compounds (I), (Ia) and (Ib) at the human 5-HT2B receptor was performed by Eurofins/Cerep (France) measuring the compound effects on inositol monophosphate (IP1) production using the HTRF detection method. Briefly, the human 5-HT2B receptor was expressed in transfected CHO cells. The cells were suspended in a buffer containing 10 mM Hepes/NaOH (pH 7.4), 4.2 mM KCl, 146 mM NaCl, 1 mM CaCl2, 0.5 mM MgCl2, 5.5 mM glucose and 50 mM LiCl, then distributed in microplates at a density of 4100 cells/well and incubated for 30 min at 37° C. in the presence of buffer (basal control), test compound or reference agonist. For stimulated control measurement, separate assay wells contained 1 μM 5-HT. Following incubation, the cells were lysed and the fluorescence acceptor (fluorophen D2-labeled IP1) and fluorescence donor (anti-IP1 antibody labeled with europium cryptate) were added. After 60 min at room temperature, the fluorescence transfer was measured at lambda(Ex) 337 nm and lambda(Em) 620 and 665 nm using a microplate reader (Rubystar, BMG). The IP1 concentration was determined by dividing the signal measured at 665 nm by that measured at 620 nm (ratio). The results were expressed as a percent of the control response to 1 μM 5-HT. The standard reference agonist was 5-HT, which was tested in each experiment at several concentrations to generate a concentration-response curve from which its EC50 value is calculated as described above for dopamine functional assays.

[1] = PK experiments in rats: plasma compound (I) after oral dosing of prodrugs; assay type: in vivo, Han Wistar rats; conditions: Wistar rats, FIG. 2, doses equal to 287 μg/kg of compound (I)
Description: Plasma was placed on water-ice following collection. Final storage at approximately −70° C.
Mobile phase B: Acetonitrile. […] Flow rate 0.5 mL/min.
The rats had unrestricted access to the diet.
Mobile phase B: Acetonitrile+0.2% formic acid. […] Flow rate 0.3 mL/min.
Han Wistar rats were supplied by Envigo, UK. […] The rats received a standard laboratory diet Teklad 2014C. The rats had unrestricted access to the diet.

hepatocytes from rat = assay: Conversion to compound (I) in rat hepatocytes; assay type: in vitro ADME; conditions: 1 μg/mL, 37° C., 0.25-60 minutes, FIG. 7a
Description: (§1) The cell concentration at incubation was 1×10^6 viable cells/mL. The incubations were performed in glass tubes at 37° C. with a total incubation volume of 3.5 mL and with duplicate incubations for each test item. The 3.5 mL of hepatocyte suspension was equilibrated for 10 minutes in a water bath set to 37° C. where after the incubations were initiated by adding 3.5 μL of a stock solution of the test item in DMSO (Dimethyl sulfoxide) and gently inverting the tubes. The final solvent concentration in the incubations was 0.1% DMSO. Samples of 600 μL were withdrawn from the incubations at the pre-determined time points of 0.25, 5, 15, 30 and 60 minutes after ensuring homogeneity of hepatocyte suspensions. The withdrawn volume was added to 1 mL Nunc cryo tubes on wet ice containing 60 μL of ice cold ascorbic acid (100 mg/mL) and 30 μL of ice cold 100 mM saccharic acid 1.4-lactone in 0.5 M citric acid. The tubes were mixed and 35 μL of a solution of ice cold 20% formic acid was added. The tubes were mixed thoroughly and stored at −80° C. awaiting analysis. Analysis method and Instrumentation used for analysis of (I) from dosing (Id-ia), (Id-ib), (Id-iia) and (Id-iib), were the one described in Examples 4 and 5 below in the section “Instrumentation used for analysis of compound (I) from dosing of compounds (Ic), (Id-ia), (Id-ib), (Id-iia), (Id-iib), (Id-iab) and (Id-iiab).”
(§2) Analysis method and Instrumentation used for analysis of (I) from dosing (Id-iab) and (Id-iiab) consisted of mixing equal aliquots of the samples and precipitation solution (acetonitrile (MeCN) with 10% methanol (MeOH) and 1% formic acid), followed by centrifugation at 4° C. at 16000 g for 10 minutes. Supernatants were collected and analysed by LC-MS/MS. Mass spectrometer: Waters Acquity—Waters Xevo TQ-MS. Analytical column: Acquity UPLC HSS T3, 100×2.1 mm, 1.8 μm. Mobile phase A: 0.2% formic acid in water. Mobile phase B: 0.2% formic acid in acetonitrile. Gradient run from 95/5% to 60/40 in 5 min. Flow rate 0.3 mL/min. MRM monitoring of (I) in the study samples and in the analytical standards.

hepatocytes from human = assay: Conversion to compound (I) in human hepatocytes; assay type: in vitro ADME; conditions: 1 μg/mL, 37° C., 0.25-60 minutes, FIG. 7b
Description: as §1, §2

[2] = Conversion to compound (I) in fresh rat blood; assay type: in vitro ADME; conditions: fresh blood 37° C., 1 μg/mL, 0-60 minutes, FIG. 8a
Description: (§3) Conversion of (Id-ia), (Id-ib), (Id-iia) and (Id-iib) in human blood (average of 3 donors) and rat blood (average of 45 donors) to (I) was shown in fresh blood at 37° C. spiked with 1 μg/mL of (Id-ia), (Id-ib), (Id-iia) and (Id-iib) separately, (I) was measured at 0, 5, 15, 30 and 60 minutes in isolated plasma. Analysis method and Instrumentation as described in Examples 4 and 5 below in the section “Instrumentation used for analysis of compound (I) from dosing of compounds (Ic), (Id-ia), (Id-ib), (Id-iia), (Id-iib), (Id-iab) and (Id-iiab).”

[3] = Conversion to compound (I) in fresh human blood; assay type: in vitro ADME; conditions: fresh blood 37° C., 1 μg/mL, 0-60 minutes, FIG. 8b
Description: as §3

male CD rats = assay: Rat locomotor activity (hyperactivity) assay, open field; assay type: in vivo; conditions: for time until locomotor effect is gone: apomorphine: post administration, pramipexole: after appearance of effect, (Id-ia): recording ended at 415-minute time point
Description: In total, 206 male CD rats (Charles River, Germany) weighing 200-250 grams (165-190 grams upon arrival) were used in the study. Animals were housed at a standard temperature (22±1° C.) and in a light-controlled environment (lights on from 7 am to […]) with ad libitum access to food and water. The experiment described below was performed in accordance with the standard operating procedures of Charles River Discovery Research Services Finland Ltd. and in accordance with the national Animal Experiment Board of Finland (Eläinkoelautakunta, ELLA) authority on animal testing.
The test device is a square Plexiglass-arena (measuring 40×40×40 cm), in which the movement paths of the rats are recorded by an activity monitor (Med. Associates Inc.). Before the test period is initiated, rats are habituated to their test cage for 60 minutes. Upon completion of habituation, animals were treated with either compound or vehicle and placed back into the open field apparatus. The main test parameter measured is ambulatory distance (recorded in 5 minute segments). Overall time of measurement after receiving initial treatment was 360 minutes. Total follow up period in the study was 420 min, including 60 min of habituation.

human D1 receptor, sequence (P21728 whole entry): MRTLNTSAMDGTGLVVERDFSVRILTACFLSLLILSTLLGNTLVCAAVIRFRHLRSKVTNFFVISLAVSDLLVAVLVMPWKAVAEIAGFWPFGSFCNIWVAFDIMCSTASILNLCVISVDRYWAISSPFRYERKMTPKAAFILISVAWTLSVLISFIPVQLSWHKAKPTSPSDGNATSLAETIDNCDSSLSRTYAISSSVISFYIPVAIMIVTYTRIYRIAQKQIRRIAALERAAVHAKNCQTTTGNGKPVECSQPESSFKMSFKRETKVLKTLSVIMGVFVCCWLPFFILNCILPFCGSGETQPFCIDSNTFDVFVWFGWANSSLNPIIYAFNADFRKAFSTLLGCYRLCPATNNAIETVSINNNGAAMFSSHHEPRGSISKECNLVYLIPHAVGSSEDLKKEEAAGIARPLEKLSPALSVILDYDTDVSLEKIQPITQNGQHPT

## CCCN1CCC[C@@H]2CC3=C(CCCC3=O)C[C@H]21 [(Ia), reference compound]
Human D1 receptor
  EC50: > 1 µM
Human D2 receptor; HEK293/G15 cells expressing human D2 receptor, calcium flux
  EC50: > 1 µM
Human 5-HT2B receptor; @30 uM, percent of control response to 1 μM 5-HT
  5-HT2B agonist effect at concentration indicated: 58%
Human 5-HT2B receptor; CHO cells, IP1 production
  EC50: > 6 µM
[1]
  plasma profile of compound (I) after oral dosing (in words): early and high peak concentrations of compound (I)

## CCCN1CCC[C@@H]2Cc3c(ccc(OS(=O)(=O)O)c3O)C[C@H]21 [(Id-iib), (4aR,10aR)-6-hydroxy-1-propyl-1,2,3,4,4a,5,10,10a-octahydrobenzo[g]quinolin-7-yl hydrogen sulfate]
[1]
  plasma profile of compound (I) after oral dosing (in words): slower absorption rate avoiding rapid peak concentrations accompanied by a sustained exposure of compound (I) in plasma
Hepatocytes from rat
  conversion to compound (I) in rat hepatocytes: time dependent conversion to compound (I)
Hepatocytes from human
  conversion to compound (I) in human hepatocytes: time dependent conversion to compound (I)
[2]
  conversion to compound (I) in rat blood: time dependent conversion to compound (I)
[3]
  conversion to compound (I) in human blood: time dependent conversion to compound (I)

## CCCN1CCC[C@@H]2Cc3c(ccc(OC(=O)C(C)(C)C)c3OC(=O)C(C)(C)C)C[C@H]21 [(Ic), reference compound]
Human 5-HT2B receptor; @10 μM
  5-HT2B effect at concentration indicated (no asterisk): −5%@10
[1]
  plasma profile of compound (I) after oral dosing (in words): extremely low

## CN1CCc2cccc3c2[C@H]1Cc1ccc(O)c(O)c1-3 [apomorphine, reference compound]
Male CD rats
  time until locomotor effect is gone: 1.5 h

## CCCN1CCC[C@@H]2Cc3c(ccc(O[C@@H]4O[C@H](C(=O)O)[C@@H](O)[C@H](O)[C@H]4O)c3O)C[C@H]21 [(Id-ib), (2S,3S,4S,5R,6S)-3,4,5-trihydroxy-6-(((4aR,10aR)-6-hydroxy-1-propyl-1,2,3,4,4a,5,10,10a-octahydrobenzo[g]quinolin-7-yl)oxy)tetrahydro-2H-pyran-2-carboxylic acid]
[1]
  plasma profile of compound (I) after oral dosing (in words): slower absorption rate avoiding rapid peak concentrations accompanied by a sustained exposure of compound (I) in plasma
Hepatocytes from rat
  conversion to compound (I) in rat hepatocytes: time dependent conversion to compound (I)
Hepatocytes from human
  conversion to compound (I) in human hepatocytes: time dependent conversion to compound (I)
[2]
  conversion to compound (I) in rat blood: time dependent conversion to compound (I)
[3]
  conversion to compound (I) in human blood: time dependent conversion to compound (I)

## CCCN1CCC[C@@H]2Cc3c(ccc4c3OCO4)C[C@H]21 [(Ib), reference compound]
Human D1 receptor
  EC50: > 1 µM
Human D2 receptor; normalized to 1 μM dopamine = 100%
  Emax: 100%
Human 5-HT2B receptor; example 3
  5-HT2B agonism (in words): agonist of the 5-HT2B receptor
Human 5-HT2B receptor; read-out: 5-HT2B Emax
  Emax: 79%
[1]
  plasma profile of compound (I) after oral dosing (in words): early and high peak concentrations of compound (I)

## CCCN[C@H]1CCc2nc(N)sc2C1 [Pramipexole, pramipexole, reference compound]
Male CD rats; FIG. 4, (Id-ia) p.o., apomorphine 3 mg/kg s.c., pramipexole 0.3 mg/kg s.c.
  total distance travelled vs vehicle: significantly increased activity
Male CD rats
  time until locomotor effect is gone: 2.5 h
